Results as given in US11533913B2, “Treating water stress in plants” (Rothamsted Research Limited, priority 2015, dated 2022).

Key:
[1] = tested on: Spring wheat (Triticum aestivum Cadenza); assay: Recovery response: regrowth (biomass) of water stressed wheat plants after re-watering; format: in vivo; conditions: 4-week-old wheat plants sprayed once with 30 mL of 1 mM after 9 days of drought; watering resumed 1 day after treatment
Procedure: (§1) Spring wheat (Triticum aestivum Cadenza) seeds were sown in Rothamsted Prescription Compost Mix (75% medium grade (L+P) peat, 12% screened sterilised loam, 3% medium grade vermiculite, 10% grit (lime-free), 3.5 kg Osmocote Exact 3-4 month/m^3 (Scott's UK Professional, Ipswich, Suffolk, www.scottinternational.com), 0.5 kg PG mix/m^3 (Hydro Agri Ltd., Immingham, UK), Wetting agent and Lime) and grown in controlled environment conditions with a photoperiod of 16 hours light, 8 hours dark, day/night temperatures of 20° C./16° C., photon flux density of 600 μmol m^−2 s^−1, and ambient relative humidity. Once the plants had reached Feekes stage 4, water was withheld for 10 days. On the 9th day, 30 ml 1 mM solutions of oNPE-T6P and DMNBT6P were applied to all above-ground biomass, on the 10th day the watering schedule was reinstated. Plants were harvested to measure biomass production every 5 days for 30 days after watering was reinstated. Both experiments were completed in replicates of 6.
(§2) Analysis of Variance (ANOVA) was applied to data to test for differences between treatments. A natural log transformation was used where necessary to ensure constant variance. The GENSTAT statistical system was used for this analysis (2011, 14th edition, ©VSN International Ltd, Hemel Hempstead, UK).
The effect of the signalling precursors upon plant resilience and recovery were tested. Drought is still the biggest global factor that limits crop yields, even in developed countries, such as the UK (Boyer, 1982, Science 218: 443-448).

[2] = tested on: Spring wheat (Triticum aestivum Cadenza); assay: Resurrection response: regrowth of new tissue from plants cut back after drought treatment; format: in vivo; conditions: one application of 1 mM one day prior to re-watering, cut at 5 days after re-watering, left to regrow for 10 days
Procedure: as §1
as §2, with “UK). […]” for “UK).”

CC(OP(=O)(OC[C@H]1O[C@H](O[C@H]2O[C@H](CO)[C@@H](O)[C@H](O)[C@H]2O)[C@H](O)[C@@H](O)[C@@H]1O)OC(C)c1ccccc1[N+](=O)[O-])c1ccccc1[N+](=O)[O-] (stereo partly drawn) [oNPE-T6P 3, 6-O-bis[1-(2-nitrophenyl)-ethoxyphosphoryl]-D-trehalose]
regrowth (recovery response) following resumption of watering [1]: the effects were dramatic

COc1cc(COP(=O)(OCc2cc(OC)c(OC)cc2[N+](=O)[O-])OC[C@H]2O[C@H](O[C@H]3O[C@H](CO)[C@@H](O)[C@H](O)[C@H]3O)[C@H](O)[C@@H](O)[C@@H]2O)c([N+](=O)[O-])cc1OC [DMNB-T6P 2, 6-O-bis-(4,5-dimethoxy-2-nitrobenzyloxyphosphoryl)-D-trehalose]
regrowth (recovery response) following resumption of watering [1]: the effects were dramatic

O=P(O)(O)OC[C@H]1O[C@H](O[C@H]2O[C@H](CO)[C@@H](O)[C@H](O)[C@H]2O)[C@H](O)[C@@H](O)[C@@H]1O [Compound T6P, trehalose 6-phosphate]
regrowth (recovery response) following resumption of watering [1]: identical results to use of water alone | regrowth (resurrection response) of new tissue from plants cut back after drought treatment [2]: identical results to use of water alone
